The source of these data is patent publication US9675598B2, “Compositions of tolperisone” (SANOCHEMIA PHARMAZEUTIKA AG, priority 2007, dated 2017).

Structures are written as SMILES.

Data set [1] in a line: 4-MMPPO content after standard single recrystallization of tolperisone (Example 2). The class given is physicochemical. How it is done:
All samples used in the analytical sequence were prepared for analysis as follows. Sample were homogenized if necessary (e.g., tablets) and weighed. For each tolperisone sample, approximately 20 mg of sample was added into a 20 mL flask. 20 mL of 50 mM HCl in MeOH was added to the flask, which was then placed in an ultrasonic bath for about 5 minutes. The contents of the flask were mixed on a vortexer for about 20 seconds. In instances in which the tolperisone sample had initially been in tablet form, the solution was then centrifuged at 4000 rpm for 2 minutes. 200 μL of the sample was then transferred into a small conical centrifuge vial. 20 μL of an internal standard solution containing deuterated 4-MMPPO, 200 μL of buffer at pH 1, and 0.4 mL of diisopropyl ether (DIPE) were added to the vial. The sample was then extracted by vortexing with a DVX-2500 multi-tube vortexer (2100 rpm) for about 2 minutes (cycle: 5 seconds run, 1 second pause time) and centrifugation (phase separation) at 4000 rpm for 2 minutes. 150 μL of 50 mM HCl in MeOH/DMSO (½) was added into empty designated conical autosampler vials. After centrifugation, 100 μL of supernatant was transferred into these conical autosampler vials. The vials were crimped and vortexed with a DVX-2500 multi-tube vortexer (2100 rpm) for about 1 minute. […]

A short description of data set [2]: 4-MMPPO content after recrystallization using acidified solvent system (Example 5). The class given is physicochemical. To be noted: 1% (v/v) concentrated aqueous HCl added to the recrystallization mixture. How it is done:
Crude tolperisone was dissolved in an 85:15 (v/v) mixture of 2-butanone (MEK) and isopropanol, accompanied by addition of 1% HCl under reflux for 12 hours. The temperature was decreased to 80° C. and the solution filtered while hot. The solution was cooled to 5° C. and stirred for 7 h at 5° C.
The crystalline precipitate was separated by filtering, washed with isopropanol, and subsequently dried in vacuo at 45 to 85° C., with lower drying temperatures being preferred.
When 1% (v/v) concentrated aqueous HCl was added to the recrystallization mixture, 4-MMPPO levels dropped below 6.6 ppm in the final recrystallized tolperisone product.

For `Cc1ccc(C(=O)C(C)CN2CCCCC2)cc1` (stereo not drawn) [tolperisone, 2-methyl-1-(4-methylphenyl)-3-(piperidinyl)-1-propanone], in data set [1] (ppm as printed), the “4-MMPPO content of recrystallized product” value came to 1400 ppm. The “4-MMPPO content, subsequent production batches” value in data set [1] (subsequent production batches) was under 0.05%. Also, the “4-MMPPO levels in the final recrystallized tolperisone product” value in data set [2] was “below 6.6 ppm”.
